We go through twelve molecules from patent US4472304A, “(Amido)N-substituted bleomycins, salts thereof and process for preparation thereof” (Nippon Kayaku Kabushiki Kaisha, priority 1981, dated 1984).

The subject of experiment [1] is Mycobacterium smegmatis ATCC 607. Kind of experiment: Antimicrobial activity against Mycobacterium smegmatis ATCC 607 (agar plate-cylinder). The experiment is classed as cell-based. To be noted: standard bleomycin A2 (copper-free) assumed 1,000 mcg potency/mg. As to the method:
(§1) 2. ANT[…] MYC[…] ATCC 607 AND BACILLUS SUBTILIS
(§2) The antimicrobial activity was tested against the captioned test organisms by the method of agar plate-cylinder. The activity was recorded on the assumption that the activity of standard sample of bleomycin A2 (copper-free form) is 1,000 mcg poteney/mg.

A further experiment relates to Bacillus subtilis. Kind of experiment: Antimicrobial activity against Bacillus subtilis (agar plate-cylinder). To be noted: standard bleomycin A2 (copper-free) assumed 1,000 mcg potency/mg. Format: cell-based. As to the method: as §1, §2

As for `Cc1c(N)nc(C(CC(N)=O)NCC(N)C(=O)NCc2ccccc2)nc1C(=O)NC(C(=O)NC(C)C(O)C(C)C(=O)NC(C(=O)NCCc1nc(-c2nc(C(=O)NCCCNC(C)c3ccccc3)cs2)cs1)C(C)O)C(OC1OC(CO)C(O)C(O)C1OC1OC(CO)C(O)C(OC(N)=O)C1O)c1cnc[nH]1` [Compound 23, 3-((S)-1'-phenylethyl)aminopropylamino-(amido)N--[benzyl]-BLM], the “Antimicrobial potency of Cu-free compound against Mycobacterium smegmatis ATCC 607” value in experiment [1] turned out to be 38348 mcg potency/mg. Moreover, in the experiment on Bacillus subtilis, the “Antimicrobial potency of Cu-free compound against Bacillus subtilis” value is reported as 1380 mcg potency/mg.

Regarding `Cc1c(N)nc(C(CC(N)=O)NCC(N)C(=O)NCCCNC(C)c2ccccc2)nc1C(=O)NC(C(=O)NC(C)C(O)C(C)C(=O)NC(C(=O)NCCc1nc(-c2nc(C(=O)NCCCCNC(=N)N)cs2)cs1)C(C)O)C(OC1OC(CO)C(O)C(O)C1OC1OC(CO)C(O)C(OC(N)=O)C1O)c1cnc[nH]1` [Compound 11, 4-Guanidinobutylamino-(amido)N--[3-((S)-1'-phenylethyl)amino-propyl]-BLM], in experiment [1], the “Antimicrobial potency of Cu-free compound against Mycobacterium smegmatis ATCC 607” value was 15729 mcg potency/mg. Moreover, the “Antimicrobial potency of Cu-free compound against Bacillus subtilis” value in the experiment on Bacillus subtilis came to 7036 mcg potency/mg.

`CCCCCCCCCCCCCCCCCCNC(=O)C(N)CNC(CC(N)=O)c1nc(N)c(C)c(C(=O)NC(C(=O)NC(C)C(O)C(C)C(=O)NC(C(=O)NCCc2nc(-c3nc(C(=O)NCCCNC(C)c4ccccc4)cs3)cs2)C(C)O)C(OC2OC(CO)C(O)C(O)C2OC2OC(CO)C(O)C(OC(N)=O)C2O)c2cnc[nH]2)n1` [Compound 25, 3-((S)-1'-phenylethylamino)propylamino-(amido)N--[stearyl]-BLM]: the “Antimicrobial potency of Cu-free compound against Mycobacterium smegmatis ATCC 607” value in experiment [1] is listed as 210 mcg potency/mg. Also, the “Antimicrobial potency of Cu-free compound against Bacillus subtilis” value in the experiment on Bacillus subtilis was 0 mcg potency/mg.

Turning to `Cc1c(N)nc(C(CC(N)=O)NCC(N)C(=O)NC2CCN(Cc3ccccc3)CC2)nc1C(=O)NC(C(=O)NC(C)C(O)C(C)C(=O)NC(C(=O)NCCc1nc(-c2nc(C(=O)NCCCNC(C)c3ccccc3)cs2)cs1)C(C)O)C(OC1OC(CO)C(O)C(O)C1OC1OC(CO)C(O)C(OC(N)=O)C1O)c1cnc[nH]1` [Compound 35, 3-((S)-1'-phenylethylamino)propylamino-(amido)N--[N--benzyl-piperazin-4-yl]-BLM], the “Antimicrobial potency of Cu-free compound against Mycobacterium smegmatis ATCC 607” value in experiment [1] was determined as 18537 mcg potency/mg. Besides, the “Antimicrobial potency of Cu-free compound against Bacillus subtilis” value in the experiment with Bacillus subtilis is listed as 2159 mcg potency/mg.

For the molecule `Cc1c(N)nc(C(CC(N)=O)NCC(N)C(=O)NCCCNC(C)c2ccccc2)nc1C(=O)NC(C(=O)NC(C)C(O)C(C)C(=O)NC(C(=O)NCCc1nc(-c2nc(C(=O)NCCc3c[nH]cn3)cs2)cs1)C(C)O)C(OC1OC(CO)C(O)C(O)C1OC1OC(CO)C(O)C(OC(N)=O)C1O)c1cnc[nH]1` [Compound 5, 2-(4'-Imidazolyl)ethylamino-(amido)N--[3-((S)-1'-phenylethyl)-aminopropyl]-BLM], the “Antimicrobial potency of Cu-free compound against Mycobacterium smegmatis ATCC 607” value in experiment [1] stood at 9846 mcg potency/mg. Further, in the experiment with Bacillus subtilis, the “Antimicrobial potency of Cu-free compound against Bacillus subtilis” value turned out to be 3772 mcg potency/mg.

For the molecule `CCCCN(CCCC)CCCNC(=O)C(N)CNC(CC(N)=O)c1nc(N)c(C)c(C(=O)NC(C(=O)NC(C)C(O)C(C)C(=O)NC(C(=O)NCCc2nc(-c3nc(C(=O)NCCCCNC(=N)N)cs3)cs2)C(C)O)C(OC2OC(CO)C(O)C(O)C2OC2OC(CO)C(O)C(OC(N)=O)C2O)c2cnc[nH]2)n1` (stereo not drawn) [Compound 12], the “Antimicrobial potency of Cu-free compound against Mycobacterium smegmatis ATCC 607” value in experiment [1] amounted to 16438 mcg potency/mg. Besides, the “Antimicrobial potency of Cu-free compound against Bacillus subtilis” value in the experiment with Bacillus subtilis is 4384 mcg potency/mg.

With `CCCCN(CCCC)CCCNC(=O)C(N)CNC(CC(N)=O)c1nc(N)c(C)c(C(=O)NC(C(=O)NC(C)C(O)C(C)C(=O)NC(C(=O)NCCc2nc(-c3nc(C(=O)NCCCN(C)CCCNCc4ccc(C#N)cc4)cs3)cs2)C(C)O)C(OC2OC(CO)C(O)C(O)C2OC2OC(CO)C(O)C(OC(N)=O)C2O)c2cnc[nH]2)n1` (stereo not drawn) [Compound 61, 3-{N--methyl-N--[3-(p-cyanobenzylamino)propyl]amino}-propylamino-(amido)N--[3-(di-n-butylamino)propyl]-BLM], the “Antimicrobial potency of Cu-free compound against Mycobacterium smegmatis ATCC 607” value in experiment [1] is 14730 mcg potency/mg. Further, the “Antimicrobial potency of Cu-free compound against Bacillus subtilis” value with Bacillus subtilis stood at 4755 mcg potency/mg.

As for `CCCCN(CCCC)CCCNC(=O)C(N)CNC(CC(N)=O)c1nc(N)c(C)c(C(=O)NC(C(=O)NC(C)C(O)C(C)C(=O)NC(C(=O)NCCc2nc(-c3nc(C(=O)NCCCN(C)CCCNCCc4ccc(Cl)cc4)cs3)cs2)C(C)O)C(OC2OC(CO)C(O)C(O)C2OC2OC(CO)C(O)C(OC(N)=O)C2O)c2cnc[nH]2)n1` (stereo not drawn) [Compound 46, 3-{N--methyl-N--[3-(2-(p-chlorophenyl)ethyl)aminopropyl]amino}-propylamino-(amido)N--[3-(di-n-butylamino)propyl]-BLM], the “Antimicrobial potency of Cu-free compound against Mycobacterium smegmatis ATCC 607” value in experiment [1] was found to be 31690 mcg potency/mg. Also, in the experiment on Bacillus subtilis, the “Antimicrobial potency of Cu-free compound against Bacillus subtilis” value came out at 3690 mcg potency/mg.

Turning to `Cc1c(N)nc(C(CC(N)=O)NCC(N)C(=O)NCC(F)(F)F)nc1C(=O)NC(C(=O)NC(C)C(O)C(C)C(=O)NC(C(=O)NCCc1nc(-c2nc(C(=O)NCCCCNC(=N)N)cs2)cs1)C(C)O)C(OC1OC(CO)C(O)C(O)C1OC1OC(CO)C(O)C(OC(N)=O)C1O)c1cnc[nH]1` (stereo not drawn) [Compound 9, 4-Guanidinobutylamino-(amido)N--[2',2',2'-trifluoroethyl]-BLM], in experiment [1], the “Antimicrobial potency of Cu-free compound against Mycobacterium smegmatis ATCC 607” value turned out to be 3990 mcg potency/mg. Moreover, the “Antimicrobial potency of Cu-free compound against Bacillus subtilis” value in the experiment with Bacillus subtilis came to 730 mcg potency/mg.

With `Cc1c(N)nc(C(CC(N)=O)NCC(N)C(=O)NCc2ccc(Cl)cc2)nc1C(=O)NC(C(=O)NC(C)C(O)C(C)C(=O)NC(C(=O)NCCc1nc(-c2nc(C(=O)NCCCNC(C)c3ccccc3)cs2)cs1)C(C)O)C(OC1OC(CO)C(O)C(O)C1OC1OC(CO)C(O)C(OC(N)=O)C1O)c1cnc[nH]1` [Compound 24, 3-((S)-1'-phenylethyl)aminopropylamino-(amido)N--[p-chlorobenzyl]-BLM], the “Antimicrobial potency of Cu-free compound against Mycobacterium smegmatis ATCC 607” value in experiment [1] is on record as 56328 mcg potency/mg. For the same molecule, the “Antimicrobial potency of Cu-free compound against Bacillus subtilis” value with Bacillus subtilis was 1184 mcg potency/mg.

In the case of `CCCCCCCCCCCCNC(=O)C(N)CNC(CC(N)=O)c1nc(N)c(C)c(C(=O)NC(C(=O)NC(C)C(O)C(C)C(=O)NC(C(=O)NCCc2nc(-c3nc(C(=O)NCCCNC(C)c4ccccc4)cs3)cs2)C(C)O)C(OC2OC(CO)C(O)C(O)C2OC2OC(CO)C(O)C(OC(N)=O)C2O)c2cnc[nH]2)n1` [Compound 26, 3-((S)-1'-phenylethylamino)propylamino-(amido)N--[lauryl]-BLM], in experiment [1], the “Antimicrobial potency of Cu-free compound against Mycobacterium smegmatis ATCC 607” value is on record as 3920 mcg potency/mg. Also, in the experiment with Bacillus subtilis, the “Antimicrobial potency of Cu-free compound against Bacillus subtilis” value came out at 384 mcg potency/mg.

Consider `Cc1c(N)nc(C(CC(N)=O)NCC(N)C(=O)NC(C)CCCC(C)C)nc1C(=O)NC(C(=O)NC(C)C(O)C(C)C(=O)NC(C(=O)NCCc1nc(-c2nc(C(=O)NCCCN(C)CCCNCc3ccc(Cl)cc3)cs2)cs1)C(C)O)C(OC1OC(CO)C(O)C(O)C1OC1OC(CO)C(O)C(OC(N)=O)C1O)c1cnc[nH]1` (stereo not drawn) [Compound 42, 3-{N--methyl-N--[3-(p-chlorobenzyl)aminopropyl]amino}propyl-amino-(amido)N--[1,5-dimethylhexyl]-BLM], for which, in experiment [1], the “Antimicrobial potency of Cu-free compound against Mycobacterium smegmatis ATCC 607” value is listed as 31834 mcg potency/mg. For the same molecule, in the experiment with Bacillus subtilis, the “Antimicrobial potency of Cu-free compound against Bacillus subtilis” value stood at 933 mcg potency/mg.
